From article PMC7859889 (ACS chemical biology, 2020)
“Also recorded” adds a separate entry of the source. Structures can show the parent of a compound that is named as a salt. Where two headings read alike, the source gives them in different places.

Assays:
[1] = system: type I IFN – MHC class I pathway; assay: Average / all assays; assay type: cell-based, human; conditions: for IC50: read-out: Average IC50; for hill slope: concentration-response curves
[2] = system: HLA-B HiBit (MHC class I); assay: HLA-B HiBit luminescent reporter assay; conditions: for HiBit Efficacy: 4.0 ng/ml IFN-β, IFN-β = 0%, DMSO alone = −100% activity; for Emax: read-out: HiBit Efficacy
HLA-B HiBit cells = assay: CellTiter-Glo; conditions: for CTG Efficacy: IFN-β = 0%, 92 uM Digitonin = −100% activity; for IC50: read-out: CTG IC50
IFIT1 = assay: Multi Gene RT-qPCR, IFIT1; assay type: cell-based, human; conditions: compared to IFN-β treated cells; 4.0 ng/ml IFN-β plus 50 uM compound, 24 hrs
HLA-ABC = HLA-ABC immunofluorescence; assay type: cell-based, human; conditions: for Emax / IC50: Homo sapiens; for Emax: read-out: Immunofluorescence Efficacy
HLA-B mRNA = assay: HLA-B RT-qPCR tertiary assay; assay type: cell-based, human; conditions: for IC50: read-out: RT-qPCR IC50; for Emax: read-out: RT-qPCR Efficacy
ISG15 = assay: Multi Gene RT-qPCR, ISG15; assay type: cell-based, human; conditions: compared to IFN-β treated cells; 4.0 ng/ml IFN-β plus 50 uM compound, 24 hrs
C25cl48 cells = assay: IF cell count cytotoxicity; assay type: cell-based, human; conditions: for Cell count Curve class: IF cell count cytotoxicity
HLA and ISG genes = assay: Multi Gene RT-qPCR, gene panel; assay type: cell-based, human; conditions: 4.0 ng/ml IFN-β plus 50 uM compound, 24 hrs; for effect on HLA and ISG gene expression (in words): C25cl48 cells
STAT1 = assay: Western blot, STAT1 phosphorylation; assay type: cell-based, human; conditions: C25cl48 cells, 0.5 hrs, 4.0 ng/ml IFN-β plus IC95 concentration of compound
HLA-C = assay: Multi Gene RT-qPCR, HLA-C; assay type: cell-based, human; conditions: compared to IFN-β treated cells; 4.0 ng/ml IFN-β plus 50 uM compound, 24 hrs
MX1 = assay: Multi Gene RT-qPCR, MX1; assay type: cell-based, human; conditions: compared to IFN-β treated cells; 4.0 ng/ml IFN-β plus 50 uM compound, 24 hrs
[3] = cited from earlier work
[4] = cited from earlier work; remark: listed apart in the source
[5] = 37.5 and 50 mg b.i.d. ref 43, 44; cited from earlier work
HLA-A = assay: Multi Gene RT-qPCR, HLA-A; assay type: cell-based, human; conditions: 4.0 ng/ml IFN-β plus 50 uM compound, 24 hrs
[6] = system: IL-6 stimulation of whole blood; conditions: IL-6 stimulation of whole blood ref 20; cited from earlier work
[7] = average of HiBit, Immunofluorescence, RT-qPCR
[8] = HLA-B HiBit clone AB-7 cells, 24 hours
[9] = read-out: HiBit IC50, HLA-B HiBit clone AB-7 cells, 4.0 ng/ml IFN-β plus compound titration, 24 hours
[10] = cytotoxicity, 4.0 ng/ml IFN-β, 24 hours
[11] = HLA-ABC+ C25cl48 cells, IFN-β-stimulated, prednisolone acetate used for IF
[12] = HLA-B mRNA, C25cl48 cells, 4.0 ng/mL IFN-β
[13] = read-out: Immunofluorescence IC50
[14] = compared to IFN-β treated cells

Structure (SMILES) | HiBit Efficacy [2, 8] | CTG Curve class (HLA-B HiBit cells; [10]) | Cell count Curve class (C25cl48 cells; C25cl48 cells) | efficacy in reducing all HLA and ISG genes (HLA and ISG genes) | effect on HLA and ISG gene expression (in words) (HLA and ISG genes) | Emax (HLA-ABC) | Emax (HLA-B mRNA; Homo sapiens) | IC50 ([1]; Homo sapiens) | Emax ([2]; Homo sapiens, 24 h) | IC50 (HLA-ABC; [13]) | IC50 (HLA-B mRNA; Homo sapiens) | also measured
Cc1sc2c(c1C)C(c1ccc(Cl)cc1)=N[C@@H](CC(=O)Nc1ccc(OCCOCCOCCOCCNc3cccc4c3C(=O)N(C3CCC(=O)NC3=O)C4=O)cc1)c1nnc(C)n1-2 (stereo partly shown) [ARV-825] | 71% | −1b | 4 | low efficacy | reduced IFIT1 while increasing ISG15 | – | – | – | – | – | – | Average Curve class [1, 7]: −1b; Average Efficacy [1, 7]: 65%; IC50 [1, 7]: 0.084 µM; IC50 [2, 9]: 0.097 µM; CTG Efficacy (HLA-B HiBit cells; cytotoxicity): 8%; IC50 (HLA-B HiBit cells; [10]): 0.053 µM; decrease of IFIT1 mRNA (IFIT1): 84%; Immunofluorescence Efficacy (HLA-ABC; [11]): 82%; RT-qPCR Curve class (HLA-B mRNA; [12]): −1b; RT-qPCR Efficacy (HLA-B mRNA; [12]): 43%; IC50 (HLA-B mRNA; [12]): 0.065 µM; increase of ISG15 mRNA (ISG15): 2.8 fold
CCS(=O)(=O)N1CC(CC#N)(n2cc(-c3ncnc4[nH]ccc34)cn2)C1 [Baricitinib, baricitinib] | 100% | 4 | 4 | – | – | 100% | 100% | – | – | – | – | phosphorylation of STAT1 (STAT1): prevented phosphorylation of STAT1
COc1ccc(-c2nc(N3CCOCC3)c3sc(CN(C)c4ncc(C(=O)NO)cn4)cc3n2)cn1 [CUDC-907] | – | −1b | −3 | 70–80% | reduced 3 genes | 100% | 73% | 0.019 µM | 86% | 0.0058 µM | 0.023 µM | IC50 (HLA-B HiBit cells; Homo sapiens, 24 h): 3.5 µM; CTG Efficacy (HLA-B HiBit cells; cytotoxicity): 40%; decrease of IFIT1 mRNA (IFIT1): ~ 75%; decrease of HLA-C mRNA (HLA-C): ~ 75%; Cell count Efficacy at highest concentration (C25cl48 cells): (10) %; decrease of MX1 mRNA (MX1): ~ 75%
CCc1cnn2c(NCc3ccc[n+]([O-])c3)cc(N3CCCC[C@H]3CCO)nc12 [Dinaciclib, dinaciclib] | – | 4 | 4 | – | did not decrease any of the other genes tested; also recorded: increased HLA-C, ISG15, and MX1 | 100% | 117% | – | 100% | – | – | increase of HLA-C mRNA (HLA-C): ~ 3.3 fold; increase of ISG15 mRNA (ISG15): ~ 3.3 fold; common adverse events [3]: leukopenia, thrombocytopenia, gastrointestinal symptoms, alopecia, and fatigue; increase of MX1 mRNA (MX1): ~ 3.3 fold
CS[C@H]1SC[C@H]2C(=O)N(C)[C@@H](C(C)C)C(=O)OC[C@@H](NC(=O)c3cnc4ccccc4n3)C(=O)N[C@@H](C)C(=O)N(C)[C@@H]1C(=O)N(C)[C@@H](C(C)C)C(=O)OC[C@@H](NC(=O)c1cnc3ccccc3n1)C(=O)N[C@@H](C)C(=O)N2C [Echinomycin, echinomycin] | – | 4 | 4 | > 99% | normalized all genes | 120% | 112% | 0.006 µM | 100% | 0.0041 µM | 0.003 µM | hill slope [1]: ultrasensitive; adverse effects in Phase I clinical trial [4]: nausea, vomiting, reversible liver enzyme abnormalities, and allergic reactions
CCN(CC)Cc1ccc2cc(COC(=O)Nc3ccc(C(=O)NO)cc3)ccc2c1 [Givinostat HCl, Givinostat] | – | −3 | −3 | 70–80% | normalized HLA-A and -B to DMSO levels | 100% | 100% | 1.8 µM | 82% | 0.26 µM | 4.1 µM | CTG Efficacy at highest concentration (HLA-B HiBit cells): (18) %; Cell count Efficacy at highest concentration (C25cl48 cells): (25) %; safety signal at higher doses [5]: platelet count decrease; decrease of ISGs (IFIT1, ISG15, MX1) (HLA and ISG genes; [14]): ~ 90%
COc1cccc2c1C(=O)c1c(O)c3c(c(O)c1C2=O)C[C@@](O)(C(=O)CO)C[C@@H]3O[C@H]1C[C@H](N2CCO[C@H](OC)C2)[C@H](O)[C@H](C)O1 [Nemorubicin, nemorubicin] | – | 4 | 4 | > 99% | normalized all genes | 107% | 133% | 0.104 µM | 100% | 0.07 µM | 0.092 µM | –
Cc1[nH]c2ccccc2c1CCNCc1ccc(/C=C/C(=O)NO)cc1 [Panobinostat, panobinostat] | – | −3 | 4 | 70–80% | – | 111% | 68% | 0.04 µM | 86% | 0.028 µM | 0.029 µM | potency relative to givinostat at inhibiting IFN-β-MHC class I pathway [1]: 45 x; CTG Efficacy at highest concentration (HLA-B HiBit cells): (25) %; effect on HLA-A mRNA (HLA-A): no effect; decrease of all genes tested except HLA-A (HLA and ISG genes; [14]): ~ 80%
C[C@]12C=CC(=O)C=C1CC[C@@H]1[C@@H]2[C@@H](O)C[C@@]2(C)[C@H]1CC[C@]2(O)C(=O)CO [Prednisolone] | – | 4 | 4 | – | increased ISG15 and MX1 | 31% | 14% | 0.043 µM | – | – | 0.03 µM | increase of ISG15 mRNA (ISG15): ~ 3.4 fold; increase of MX1 mRNA (MX1): ~ 3.4 fold
N#CC[C@H](C1CCCC1)n1cc(-c2ncnc3[nH]ccc23)cn1 [Ruxolitinib, ruxolitinib] | 100% | 4 | 4 | – | – | 100% | 115% | 1.2 µM | – | 0.88 µM | 1.6 µM | phosphorylation of STAT1 (STAT1): prevented phosphorylation of STAT1; IC50 ([2]; Homo sapiens, 24 h, read-out: HiBit IC50): 1.1 µM; IC50 ([2]; Homo sapiens, 24 h, read-out: IC50, HiBit control titration): 0.34 ± 0.036 µM; CTG viability response in control titrations (HLA-B HiBit cells; HLA-B HiBit cells, 24 hrs): slight bell-shaped curve; IC50 (HLA-ABC; 48 h, read-out: IC50, HLA-ABC+ cells control titration): 3.5 µM; cell count response in control titrations (C25cl48 cells; C25cl48 cells, 48 hrs): bell shaped viability curve; IC50 [6]: 0.282 ± 0.054 µM
C[C@@H]1CCN(C(=O)CC#N)C[C@@H]1N(C)c1ncnc2[nH]ccc12 [Tofacitinib, tofacitinib] | 100% | 4 | 4 | – | – | 100% | 83% | – | – | – | – | phosphorylation of STAT1 (STAT1): prevented phosphorylation of STAT1
CC(C)[C@]12O[C@H]1[C@@H]1O[C@@]13[C@@]1(C)CCC4=C(COC4=O)[C@@H]1C[C@@H]1O[C@@]13C2=O [Triptonide, triptonide] | 100% | 4 | 4 | > 99% | normalized all genes | – | – | – | – | – | – | Average Curve class [1, 7]: −1a; Average Efficacy [1, 7]: 104%; hill slope [1]: ultrasensitive; IC50 [1, 7]: 0.246 µM; HiBit Curve class ([2]; HLA-B HiBit clone AB-7 cells, 4.0 ng/ml IFN-β plus compound titration, 24 hours): −1a; IC50 [2, 9]: 0.047 µM; Immunofluorescence Curve class (HLA-ABC; [11]): −1a; Immunofluorescence Efficacy (HLA-ABC; [11]): 100%; RT-qPCR Curve class (HLA-B mRNA; [12]): −1a; RT-qPCR Efficacy (HLA-B mRNA; [12]): 113%; IC50 (HLA-B mRNA; [12]): 0.5 µM
CC(C)[C@]12O[C@H]1[C@@H]1O[C@]13[C@]1(O[C@H]1C[C@H]1C4=C(CC[C@@]13C)C(=O)OC4)[C@@H]2O [triptolide] | – | – | – | – | – | – | – | – | – | – | – | hill slope [1]: ultrasensitive
